Values joined by “and” are separate entries in the source; they are usually repeats but may differ in a detail not shown here. Equal entries are not always repeated.
Assays:
SALL4 = target: T1, SALL4 (Homo sapiens, UniProt Q96SW2+Q9UJQ4); experiment: HiBiT degradation assay, NCCIT/SALL4-HiBiT KI cells; type: cell-based; conditions: N ≥ 3; for EC50: degradation, 2 hr incubation, top conc 10 uM; for SALL4 Ymin: depth of degradation (100% = no reduction, 0% = complete degradation), 2 hr
T1 construct: endogenous in cells; host or cells: NCCIT (HiBiT knock-in)
T1 sequence (Q9UJQ4 whole entry): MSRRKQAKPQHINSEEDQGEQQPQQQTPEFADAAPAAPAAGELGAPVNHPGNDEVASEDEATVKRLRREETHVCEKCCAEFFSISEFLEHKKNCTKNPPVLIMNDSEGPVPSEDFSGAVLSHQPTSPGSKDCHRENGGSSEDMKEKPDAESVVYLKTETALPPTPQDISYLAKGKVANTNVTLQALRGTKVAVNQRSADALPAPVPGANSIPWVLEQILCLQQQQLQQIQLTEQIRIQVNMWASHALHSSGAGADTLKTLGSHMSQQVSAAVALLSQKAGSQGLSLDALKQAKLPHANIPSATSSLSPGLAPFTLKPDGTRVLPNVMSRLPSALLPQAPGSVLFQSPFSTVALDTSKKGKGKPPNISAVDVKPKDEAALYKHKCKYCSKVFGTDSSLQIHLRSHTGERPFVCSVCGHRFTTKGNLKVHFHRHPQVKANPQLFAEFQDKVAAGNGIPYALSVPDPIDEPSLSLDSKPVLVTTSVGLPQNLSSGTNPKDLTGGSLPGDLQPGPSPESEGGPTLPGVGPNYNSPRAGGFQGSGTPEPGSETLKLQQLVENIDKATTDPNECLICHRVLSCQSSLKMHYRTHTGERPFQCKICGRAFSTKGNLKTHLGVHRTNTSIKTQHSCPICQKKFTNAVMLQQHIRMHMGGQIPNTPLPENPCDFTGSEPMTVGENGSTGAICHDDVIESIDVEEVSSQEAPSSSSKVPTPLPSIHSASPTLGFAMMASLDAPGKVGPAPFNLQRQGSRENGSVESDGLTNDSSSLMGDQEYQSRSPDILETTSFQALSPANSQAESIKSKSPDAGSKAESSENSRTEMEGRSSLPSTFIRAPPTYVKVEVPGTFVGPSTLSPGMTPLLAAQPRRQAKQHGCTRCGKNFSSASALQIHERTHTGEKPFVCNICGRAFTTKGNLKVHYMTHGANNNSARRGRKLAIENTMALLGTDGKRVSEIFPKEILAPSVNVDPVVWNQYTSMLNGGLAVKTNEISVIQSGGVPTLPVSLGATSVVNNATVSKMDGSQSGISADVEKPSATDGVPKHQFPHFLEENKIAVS
T1 sequence (Q96SW2 whole entry): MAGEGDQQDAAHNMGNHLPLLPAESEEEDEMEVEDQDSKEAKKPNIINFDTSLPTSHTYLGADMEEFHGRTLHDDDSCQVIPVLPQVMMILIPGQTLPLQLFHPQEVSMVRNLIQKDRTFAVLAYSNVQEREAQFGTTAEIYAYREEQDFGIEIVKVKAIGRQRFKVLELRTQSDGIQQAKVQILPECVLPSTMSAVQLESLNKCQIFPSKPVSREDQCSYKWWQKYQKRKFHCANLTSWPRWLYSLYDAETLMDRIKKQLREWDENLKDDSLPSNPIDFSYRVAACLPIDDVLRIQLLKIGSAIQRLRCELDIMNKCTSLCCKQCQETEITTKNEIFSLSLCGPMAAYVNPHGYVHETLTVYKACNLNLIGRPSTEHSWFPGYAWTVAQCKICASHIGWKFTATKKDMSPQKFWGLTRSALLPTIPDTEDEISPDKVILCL
T1 sequence (Q16531 whole entry partner): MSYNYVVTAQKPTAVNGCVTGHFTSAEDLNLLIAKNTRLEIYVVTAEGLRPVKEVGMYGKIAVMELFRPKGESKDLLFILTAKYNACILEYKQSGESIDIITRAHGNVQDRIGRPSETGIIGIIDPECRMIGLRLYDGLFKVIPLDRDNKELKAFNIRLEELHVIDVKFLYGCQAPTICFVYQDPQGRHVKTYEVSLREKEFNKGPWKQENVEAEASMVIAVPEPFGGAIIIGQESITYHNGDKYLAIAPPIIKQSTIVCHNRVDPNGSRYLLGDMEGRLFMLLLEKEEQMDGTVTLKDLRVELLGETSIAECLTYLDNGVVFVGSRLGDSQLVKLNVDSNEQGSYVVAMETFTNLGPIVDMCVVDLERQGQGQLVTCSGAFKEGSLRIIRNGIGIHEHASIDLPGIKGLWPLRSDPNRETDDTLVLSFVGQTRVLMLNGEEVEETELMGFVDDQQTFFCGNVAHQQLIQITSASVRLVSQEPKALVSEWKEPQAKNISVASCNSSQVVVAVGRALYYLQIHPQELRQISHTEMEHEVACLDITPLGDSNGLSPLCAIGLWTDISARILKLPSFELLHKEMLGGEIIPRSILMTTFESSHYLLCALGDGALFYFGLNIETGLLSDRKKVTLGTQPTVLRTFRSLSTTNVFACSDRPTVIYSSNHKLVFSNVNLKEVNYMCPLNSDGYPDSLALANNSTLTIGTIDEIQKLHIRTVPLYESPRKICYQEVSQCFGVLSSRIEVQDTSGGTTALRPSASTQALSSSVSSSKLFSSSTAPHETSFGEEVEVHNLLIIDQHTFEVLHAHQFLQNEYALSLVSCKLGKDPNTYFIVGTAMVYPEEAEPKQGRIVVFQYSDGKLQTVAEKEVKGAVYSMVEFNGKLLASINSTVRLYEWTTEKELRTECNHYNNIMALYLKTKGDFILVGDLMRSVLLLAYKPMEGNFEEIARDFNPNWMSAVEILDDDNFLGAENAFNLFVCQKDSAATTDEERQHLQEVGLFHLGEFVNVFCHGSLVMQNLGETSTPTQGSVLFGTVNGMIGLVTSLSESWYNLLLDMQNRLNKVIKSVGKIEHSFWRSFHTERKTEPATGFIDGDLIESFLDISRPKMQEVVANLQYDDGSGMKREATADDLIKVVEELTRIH
Description: (§1) Section 6: Assay Protocols
(§2) Fluorescence Resonance Energy Transfer-Based NSD@ PWWP Cereblon Binding Assay. […]
(§3) Compounds for testing were spotted into a 1536 well plate (Greiner Cat#782075). CRBN and Tracer solution were incubated in compound wells for 20 minutes. Detection mix containing Anti6xHis Tb Crytate (CisBio Cat#61HI2TLF) was then added to assay wells for a final 0.5x assay concentration of detection antibody (stock is provided at 400x). Plates were incubated for 30 minutes before being read on Pherastar FSX plate reader using TR-FRET module (Excitation 340nm, Emssion 615/665nm). ePL and HiBiT degradation assays
(§4) DF15 cells overexpressing ePL tagged GSPT1 (DF15/GSPT1 ePL OE) was used to monitor the degradation of GSPT1 induced by experimental compounds. MDS-L cells overexpressing ePL tagged CK1α and GSPT1G575N (MDS-L/CK1α ePL OE_ GSPT1G575N OE) was used to monitor the degradation of CK1α induced by experimental compounds. NCCIT cells with HiBiT tag knocked in at the c-terminus of SALL4 (NCCIT/SALL4-HiBiT KI) was used to monitor the degradation of SALL4 induced by experimental compounds. DF15 cells with HiBiT tag knocked in at the n-terminus of IKZF3 (DF15/HiBiT-IKZF3 KI) was used to monitor the degradation of AIOLOS (IKZF3) induced by experimental compounds. […]
(§5) The cell culture medium recipes, seeding densities and compound incubation time with cells are […]
(§6) Ta r g e t Cell line Cell culture medium Seeding Compound
(§7) (HI) FBS, 1mM sodium pyruvate, 25mM Hepes, 0.1% pluronic acid,
(§8) GSPT1G575N OE ng/mL of human recombinant IL3 […]
(§9) sodium pyruvate, 25mM Hepes, 0.1% pluronic acid, 1X NEAA
(§10) For all degradation assays, compounds were pre-spotted in a 153 6 well plate (Corning 3727) starting at 10uM with 3-fold serial dilution down 11 points in replicates using an Echo 650 series acoustic liquid handler. 5uL/well cells were seeded in the assay ready plate at the density and in […]
(§11) The final DMSO concentration in the cell culture was 0.25%. The plates were equilibrated at room temperature for 30 minutes before putting into a 37 °C CO2 incubator. After appropriate incubation period, plates were retrieved from the incubator and set at room temperature to equilibrate for 30 minutes, before adding ePL or HiBiT detection reagent. For ePL detection, the pre-prepared mixture of EA reagent, lysis buffer, and substrate reagent at ratio 1:1:4 from the DiscoverX InCELL Detection Kit (Eurofins 96-0079L) according to the manufacturer ’s recommendation was added 3ul/well into the plate. Plates were incubated in the dark for 1hr at room temperature before reading using a BMG PheraStar luminescence reader. For HiBiT detection, Nano-Glo HiBiT Lytic Reagent (Promega, N3050) prepared according to the manufacturer ’s recommendation was added 3 uL/well into the plate. Plates were incubated 30 minutes at room temperature in the dark before reading using a BMG PheraStar […]
(§12) To determine EC50 values for degradation, a four parameter logistic model (Sigmoidal Dose-Response Model) (FIT= (A+((B-A)/1+((C/x)^D)))) C is the inflection point (EC50), D is […] , A and B are the low and high limits of the fit respectively) was used to determine the compound’s EC50 value, which is the half maximum effective concentration. In the degradation assays, the Yconst of each compound was calculated by normalizing the lowest point of the fitted curve to the media only control, which is 0%, and the cells treated with DMSO control, which is 100%. All degradation curves were processed and evaluated using Dotmatics.
(§13) Section 7: Biological Data Tables

IKZF3 (Aiolos) = target: T2, IKZF3 (Aiolos) (Homo sapiens, UniProt Q96SW2+Q9UKT9); experiment: HiBiT degradation assay, DF15/HiBiT-IKZF3 KI cells; type: cell-based; conditions: N ≥ 3; for EC50: degradation, 4 hr incubation, top conc 10 uM; for IKZF3 Ymin: depth of degradation (100% = no reduction of protein level, 0% = complete degradation), 4 hr
T2 construct: endogenous in cells; host or cells: DF15 (HiBiT knock-in)
T2 sequence (Q9UKT9 whole entry): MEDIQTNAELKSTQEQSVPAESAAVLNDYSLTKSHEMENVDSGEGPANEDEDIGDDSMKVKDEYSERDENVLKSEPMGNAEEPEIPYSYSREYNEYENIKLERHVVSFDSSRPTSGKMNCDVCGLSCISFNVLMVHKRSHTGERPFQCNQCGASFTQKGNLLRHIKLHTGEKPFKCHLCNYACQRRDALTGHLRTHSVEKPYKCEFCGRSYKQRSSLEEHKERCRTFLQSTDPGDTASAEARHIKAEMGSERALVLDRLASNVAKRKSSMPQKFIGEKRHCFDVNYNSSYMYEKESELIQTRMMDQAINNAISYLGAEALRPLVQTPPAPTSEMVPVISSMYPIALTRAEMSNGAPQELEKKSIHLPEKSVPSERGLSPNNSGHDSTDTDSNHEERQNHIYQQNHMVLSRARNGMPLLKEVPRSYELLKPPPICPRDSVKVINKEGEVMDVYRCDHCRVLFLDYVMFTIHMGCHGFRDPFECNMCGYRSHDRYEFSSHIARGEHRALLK
T2 sequence (Q96SW2 whole entry): as the sequence (Q96SW2 whole entry) above
T2 sequence (Q16531 whole entry partner): as the sequence (Q16531 whole entry partner) above
Description: as §1, §2, §3, §4, §5, §6, §7, §8, §9, §10, §11, §12, §13

CRBN = target: T3, CRBN (Homo sapiens, UniProt Q96SW2); experiment: Fluorescence Resonance Energy Transfer-Based Cereblon Binding Assay (CRBN HTRF); conditions: 0.5 nM 6×His-CRBN-DDB1, 20 nM tracer CC0782985, TR-FRET
T3 construct: (CRBN a.a. 1−442, DDB1 a.a); made in house
T3 sequence (Q96SW2 whole entry): as the sequence (Q96SW2 whole entry) above
T3 sequence (Q16531 whole entry partner): as the sequence (Q16531 whole entry partner) above
Description: as §1, §2, §3, §4

CK1α = target: T4, CK1α (Homo sapiens, UniProt P48729+Q96SW2); experiment: ePL degradation assay, MDS-L/CK1α ePL OE_GSPT1G575N OE cells; type: cell-based; conditions: for EC50: degradation, 4 hr incubation, top conc 10 uM, N ≥ 3, read-out: CK1a EC50; for CK1a Ymin: depth of degradation (100% = no reduction, 0% = complete degradation), 4 hr, N ≥ 3
T4 construct: expressed in transfected cells; host or cells: MDS-L
T4 sequence (P48729 whole entry): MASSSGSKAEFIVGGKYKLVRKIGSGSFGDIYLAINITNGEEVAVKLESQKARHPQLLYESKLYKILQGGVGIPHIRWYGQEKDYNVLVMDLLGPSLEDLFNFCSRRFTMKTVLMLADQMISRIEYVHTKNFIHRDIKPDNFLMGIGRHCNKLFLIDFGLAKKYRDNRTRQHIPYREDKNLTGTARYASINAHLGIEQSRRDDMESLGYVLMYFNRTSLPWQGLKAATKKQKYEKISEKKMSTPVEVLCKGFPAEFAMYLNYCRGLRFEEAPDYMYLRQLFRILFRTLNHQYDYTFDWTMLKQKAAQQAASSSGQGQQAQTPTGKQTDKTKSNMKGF
T4 sequence (Q96SW2 whole entry): as the sequence (Q96SW2 whole entry) above
T4 sequence (Q16531 whole entry partner): as the sequence (Q16531 whole entry partner) above
Description: as §1, §2, §3, §4, §5, §6, §7, §8, §9, §10, §11, §12, §13

GSPT1 = target: T5, GSPT1 (Homo sapiens, UniProt P15170+Q96SW2); experiment: ePL degradation assay, DF15/GSPT1 ePL OE cells; type: cell-based; conditions: N ≥ 3; for EC50: degradation, 20 hr incubation, top conc 10 uM; for GSPT1 Ymin: depth of degradation (100% = no reduction, 0% = complete degradation), 20 hr
T5 construct: expressed in transfected cells; host or cells: DF15
T5 sequence (P15170 1-637 isoform P15170-3): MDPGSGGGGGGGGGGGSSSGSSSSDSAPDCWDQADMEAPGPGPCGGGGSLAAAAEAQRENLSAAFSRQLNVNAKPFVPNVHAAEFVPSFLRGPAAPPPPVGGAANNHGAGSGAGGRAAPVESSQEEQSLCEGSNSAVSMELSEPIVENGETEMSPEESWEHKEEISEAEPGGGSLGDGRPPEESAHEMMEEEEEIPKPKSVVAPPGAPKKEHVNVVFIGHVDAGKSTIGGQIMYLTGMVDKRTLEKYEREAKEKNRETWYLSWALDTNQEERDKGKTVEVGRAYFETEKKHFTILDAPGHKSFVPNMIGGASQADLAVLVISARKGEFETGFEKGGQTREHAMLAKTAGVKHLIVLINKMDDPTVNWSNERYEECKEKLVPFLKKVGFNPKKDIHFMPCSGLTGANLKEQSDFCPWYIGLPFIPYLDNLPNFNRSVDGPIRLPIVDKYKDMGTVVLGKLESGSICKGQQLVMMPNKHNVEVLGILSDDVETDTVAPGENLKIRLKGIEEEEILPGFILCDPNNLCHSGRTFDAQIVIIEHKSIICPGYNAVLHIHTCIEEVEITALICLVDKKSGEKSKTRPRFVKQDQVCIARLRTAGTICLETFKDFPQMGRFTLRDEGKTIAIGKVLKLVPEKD
T5 sequence (Q96SW2 whole entry): as the sequence (Q96SW2 whole entry) above
T5 sequence (Q16531 whole entry partner): as the sequence (Q16531 whole entry partner) above
Description: as §1, §2, §3, §4, §5, §6, §7, §8, §9, §10, §11, §12, §13

O=C1CCC(N2Cc3cc(C4=C[C@@]4(C(=O)OCC(Cl)(Cl)Cl)c4ccc(Br)cc4)ccc3C2=O)C(=O)N1 (some centres unmarked) [Compound 21b]
EC50 (SALL4): 75 ± 50 nM | SALL4 Ymin (SALL4): 68 ± 2.1% | EC50 (IKZF3 (Aiolos)): 4.8 ± 2.6 µM | IKZF3 Ymin (IKZF3 (Aiolos)): 79 ± 6.4% | IC50 (CRBN): 0.8 µM | EC50 (CK1α): 0.25 ± 0.37 µM | CK1a Ymin (CK1α): 57 ± 8.0% | EC50 (GSPT1): 3.3 ± 3 µM | GSPT1 Ymin (GSPT1): 7.7 ± 4.7%

O=C1CCC(N2C(=O)c3ccc([C@@H]4C[C@]4(C(=O)OCC(Cl)(Cl)Cl)c4ccc(Br)cc4)cc3C2=O)C(=O)N1 (some centres unmarked) [Compound 16a]
EC50 (SALL4): > 10000 nM | SALL4 Ymin (SALL4): 92 ± 8.2% | EC50 (IKZF3 (Aiolos)): > 10 µM | IKZF3 Ymin (IKZF3 (Aiolos)): 94 ± 8.3% | IC50 (CRBN): 5.3 µM | EC50 (CK1α): > 10 µM | CK1a Ymin (CK1α): 94 ± 9.9% | EC50 (GSPT1): > 10 µM

O=C1CCC(N2Cc3ccc([C@@H]4C[C@]4(C(=O)OCC(Cl)(Cl)Cl)c4ccc(Br)cc4)cc3C2=O)C(=O)N1 (some centres unmarked) [Compound 17a]
EC50 (SALL4): > 10000 nM | SALL4 Ymin (SALL4): 97 ± 2.2% | EC50 (IKZF3 (Aiolos)): > 10 µM | IKZF3 Ymin (IKZF3 (Aiolos)): 95 ± 7.6% | IC50 (CRBN): 2.1 µM | EC50 (CK1α): > 10 µM | CK1a Ymin (CK1α): 98 ± 12% | EC50 (GSPT1): > 10 µM | GSPT1 Ymin (GSPT1): 95 ± 5.4%

O=C1CCC(N2Cc3c(cccc3[C@@H]3C[C@]3(C(=O)OCC(Cl)(Cl)Cl)c3ccc(Br)cc3)C2=O)C(=O)N1 (some centres unmarked) [Compound 13a]
EC50 (SALL4): > 10000 nM | SALL4 Ymin (SALL4): 85 ± 7.3% | EC50 (IKZF3 (Aiolos)): > 10 µM and 1.86 µM | IC50 (CRBN): 0.66 µM | EC50 (CK1α): > 10 µM | CK1a Ymin (CK1α): 87 ± 0.55% | EC50 (GSPT1): > 10 µM | GSPT1 Ymin (GSPT1): 92 ± 7.8%

O=C1CCC(N2C(=O)c3cccc(C4=C[C@]4(C(=O)OCC(Cl)(Cl)Cl)c4ccc(Br)cc4)c3C2=O)C(=O)N1 (some centres unmarked) [Compound 20a]
EC50 (SALL4): 560 ± 270 nM | SALL4 Ymin (SALL4): 34 ± 7.4% | EC50 (IKZF3 (Aiolos)): 0.9 ± 0.18 µM | IKZF3 Ymin (IKZF3 (Aiolos)): 40 ± 2.2% | IC50 (CRBN): 4.6 µM | EC50 (CK1α): 1.5 ± 0.94 µM | CK1a Ymin (CK1α): 56 ± 14% | EC50 (GSPT1): 4.3 ± 1.9 µM | GSPT1 Ymin (GSPT1): 12 ± 13%

O=C1CCC(N2C(=O)c3ccc([C@H]4C[C@@]4(C(=O)OCC(Cl)(Cl)Cl)c4ccc(Br)cc4)cc3C2=O)C(=O)N1 (some centres unmarked) [Compound 16b]
EC50 (SALL4): 410 ± 160 nM | SALL4 Ymin (SALL4): 60 ± 6.1% | EC50 (IKZF3 (Aiolos)): > 10 µM | IKZF3 Ymin (IKZF3 (Aiolos)): 97 ± 3.6% | IC50 (CRBN): > 10 µM | EC50 (CK1α): > 10 µM | CK1a Ymin (CK1α): 85 ± 4.1% | EC50 (GSPT1): > 10 µM and 3.1 µM

O=C1CCC(N2C(=O)c3cccc([C@H]4C[C@@]4(C(=O)OCC(Cl)(Cl)Cl)c4ccc(Br)cc4)c3C2=O)C(=O)N1 (some centres unmarked) [Compound 14b]
EC50 (SALL4): > 10000 nM | SALL4 Ymin (SALL4): 87 ± 13% | EC50 (IKZF3 (Aiolos)): > 10 µM | IC50 (CRBN): 7.9 µM | EC50 (CK1α): > 10 µM | CK1a Ymin (CK1α): 94 ± 5.1% | EC50 (GSPT1): > 10 µM | GSPT1 Ymin (GSPT1): 87 ± 11%
